Values joined by “and” are separate entries in the source; they are usually repeats but may differ in a detail not shown here. Equal entries are not always repeated.
What was measured:
[1] = DNA delivery: raw luciferase expression (relative light units) of best-transfecting lipids; type: cell-based; details: 300 ng of DNA per well
Description: Raw values for luciferase expression (relative lights units) of best-transfecting lipids at lipid/DNA (w/w) ratios listed. 300 ng of DNA was added per well.

[2] = system: cos-7 cells; assay: DNA transfection: luciferase expression relative to Lipofectamine 2000; type: cell-based; details: for luciferase expression (second part of table, values relative to LIPO2000): 300 ng of DNA per well
Procedure, shortened: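 cos-7 cells were transfected with 300 ng/well luciferase DNA complexed with lipid at ratios from 2.5 to 25 w/w. Bright-Glo luminescence was read after 48 hours and converted to ng luciferase by standard curve. Data are percent of the Lipofectamine 2000 control (2.5 w/w).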

[3] = 1st column, no head printed (2.5 w/w by the raw values)
[4] = 2nd column, no head printed (5 w/w by the raw values)
[5] = 3rd column, no head printed (10 w/w by the raw values)
[6] = 4th column, no head printed (15 w/w by the raw values)

SMILES | Raw values for luciferase expression ([1]; lipid/DNA 2.5 w/w) [relative lights units] | Raw values for luciferase expression ([1]; lipid/DNA 5 w/w) | luciferase expression (second part of table, values relative to LIPO2000) ([2]; lipid/DNA 2.5 w/w) | luciferase expression (second part of table, values relative to LIPO2000) ([2]; lipid/DNA 5 w/w) | luciferase expression (second part of table, values relative to LIPO2000) ([2]; lipid/DNA 10 w/w) | luciferase expression (second part of table, values relative to LIPO2000) ([2]; lipid/DNA 15 w/w) | luciferase expression (second part of table, values relative to LIPO2000) ([2]; lipid/DNA 20 w/w) | luciferase expression (second part of table, values relative to LIPO2000) ([2]; lipid/DNA 25 w/w) | Raw values for luciferase expression ([1]; lipid/DNA 10 w/w) [relative lights units] | Raw values for luciferase expression ([1]; lipid/DNA 15 w/w) [relative lights units] | luciferase expression, second set of columns (replicate set of data) [2, 3] | luciferase expression, second set of columns (replicate set of data) [2, 4] | luciferase expression, second set of columns (replicate set of data) [2, 5] | luciferase expression, second set of columns (replicate set of data) [2, 6]
CCCCCCCCCCCCNC(=O)CCN(CCC(=O)NCCCCCCCCCCCC)CC(C)O (centres unmarked) [ND21] | 1170534 | 1213862 relative lights units | 47.4 | 69.2 | 18.7 | 2.6 | 0.1 | 0.4 | – | – | – | – | – | –
CCCCCCCCCCCCNC(=O)CCN(CCC(=O)NCCCCCCCCCCCC)CC(C)O (centres unmarked) [ND22] | 721270 | 1083569 relative lights units | 29.2 | 61.7 | 48.0 | 4.4 | 0.4 | 0.2 | – | – | – | – | – | –
CCCCCCCCCCCCNC(=O)CCN(CCC(=O)NCCCCCCCCCCCC)CC(O)CO (centres unmarked) [ND24] | 5256861 | 1231973 relative lights units | 157.6 | 30.5 | 2.4 | 0.2 | 0.0 | 0.0 | – | – | – | – | – | –
CCCCCCCCCCCCNC(=O)CCN(CCC(=O)NCCCCCCCCCCCC)C(CO)CO [ND25] | 7548491 | 5088120 relative lights units | 226.4 | 125.8 | 19.5 | 0.5 | 0.0 | 0.0 | – | – | – | – | – | –
CCCCCCCCCCCCNC(=O)CCN(CCOCCO)CCC(=O)NCCCCCCCCCCCC [ND31] | – | – | 7.7 | 5.6 | 47.6 | 44.9 | 7.6 | 19.7 | 1154404 | 936815 | – | – | – | –
CCCCCCCCCCCCNC(=O)CCN(CCCCCO)CCC(=O)NCCCCCCCCCCCC [ND32] | 17713202 | 2745231 relative lights units | 531.2 | 67.9 | 1.1 | 0.1 | 0.0 | 0.0 | – | – | – | – | – | –
CCCCCCCCCCCCNC(=O)CCN(CCCCCCO)CCC(=O)NCCCCCCCCCCCC [ND36] | 4517622 | 2945357 relative lights units | 135.5 | 72.8 | 84.3 | 31.6 | 0.8 | 0.0 | 2043526 | 658985 | – | – | – | –
CCCCCCCCCCCCCCNC(=O)CCN(C)CCN(C)CCC(=O)NCCCCCCCCCCCCCC [NF60] | – | – | 6.8 | 21.9 | 28.9 | 49.1 | – | – | 2401570 | 3739668 | – | – | – | –
CCCCCCCCCCCCCCNC(=O)CCN(CC)CCN(CC)CCC(=O)NCCCCCCCCCCCCCC [NF61] | – | 3689556 relative lights units and 3053999 relative lights units | 63.9 | 67.7 | 7.0 | 2.9 | – | – | – | – | 5.2 | 38.9 | 8.6 | 1.1
CCCCCCCCCCCCCCNC(=O)CCN(CC)CCCN(CC)CCC(=O)NCCCCCCCCCCCCCC [NF64] | 384317 | 2283250 relative lights units | 5.7 | 41.9 | 0.3 | 0.1 | – | – | – | – | – | – | – | –
CCCCCCCCCCCCCCNC(=O)CCN(CCC(=O)NCCCCCCCCCCCCCC)CCN(CCO)CCO [NF86] | 4798383 | 4087285 relative lights units | 56.7 | 53.3 | 4.5 | 2.3 | – | – | – | – | – | – | – | –
CCCCCCCCCCCCCCNC(=O)CCN(CCCN(CCO)CCO)CCC(=O)NCCCCCCCCCCCCCC [NF87] | 3904993 | 3436007 relative lights units | 46.1 | 44.8 | 0.3 | 0.0 | – | – | – | – | – | – | – | –
CCCCCCCCCCCCCCNC(=O)CCN(C)CCN(CCC(=O)NCCCCCCCCCCCCCC)CCC(=O)NCCCCCCCCCCCCCC [NF95] | – | 2082965 relative lights units and 3775212 relative lights units | 131.6 | 141.8 | 100.5 | 33.9 | – | – | 1906488 | 918612 | 6.0 | 9.4 | 4.7 | 12.1
CCCCCCCCCCCCCCNC(=O)CCN(CCCN(CCC(=O)NCCCCCCCCCCCCCC)CCC(=O)NCCCCCCCCCCCCCC)CCC(=O)NCCCCCCCCCCCCCC [NF100] | 1061441 | 8015 relative lights units | 75.9 | 0.5 | 0.0 | 0.0 | – | – | – | – | – | – | – | –
CCCCCCCCCCCCCCNC(=O)CCN(CCO)CCN(CCO)CCC(=O)NCCCCCCCCCCCCCC [NF103] | – | – | 183.1 | 23.6 | 0.0 | 0.0 | – | – | 2886271 | 772518 | 66.2 | 51.3 | 0.6 | 0.0
CCCCCCCCCCCCCCNC(=O)CCN(CCO)CCN(CCC(=O)NCCCCCCCCCCCCCC)CCC(=O)NCCCCCCCCCCCCCC [NF109] | – | – | 205.2 | 46.2 | 1.7 | 0.0 | – | – | 1151621 | 108854 | 74.5 | 22.5 | 3.9 | 1.6

From patent US9006487B2, “Amine-containing lipids and uses thereof” (Massachusetts Institute of Technology, priority 2005, dated 2015)
